Data on two molecules can be found in article PMC9851200, “Multiparameter phenotypic screening for endogenous TFEB and TFE3 translocation identifies novel chemical series modulating lysosome function” (Autophagy, 2022).

Type in all cases: binding
The target of assay [1] is T1, kinases (KINOMEscan panel) (Homo sapiens, UniProt O43318).
T1 sequence (O43318 1-606): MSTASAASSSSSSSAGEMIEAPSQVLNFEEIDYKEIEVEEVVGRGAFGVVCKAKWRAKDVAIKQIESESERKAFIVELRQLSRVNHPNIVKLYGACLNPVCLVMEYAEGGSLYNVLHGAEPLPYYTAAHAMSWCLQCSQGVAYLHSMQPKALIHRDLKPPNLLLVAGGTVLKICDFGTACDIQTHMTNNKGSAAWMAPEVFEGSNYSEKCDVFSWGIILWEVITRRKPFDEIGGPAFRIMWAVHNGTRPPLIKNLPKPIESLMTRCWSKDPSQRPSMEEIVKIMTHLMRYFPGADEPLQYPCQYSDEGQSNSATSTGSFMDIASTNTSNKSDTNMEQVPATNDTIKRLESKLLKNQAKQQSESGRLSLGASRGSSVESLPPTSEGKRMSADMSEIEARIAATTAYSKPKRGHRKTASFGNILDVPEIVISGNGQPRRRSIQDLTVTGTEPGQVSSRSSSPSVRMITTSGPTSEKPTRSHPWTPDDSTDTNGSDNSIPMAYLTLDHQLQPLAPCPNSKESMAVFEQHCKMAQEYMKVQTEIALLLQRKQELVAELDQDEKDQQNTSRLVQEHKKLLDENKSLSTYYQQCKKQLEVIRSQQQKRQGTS
As to conditions: NEW KINOMEscan.

The target of assay [2] is T2, kinases (KINOMEscan panel) (Homo sapiens, UniProt P15735).
T2 sequence (P15735 1-406): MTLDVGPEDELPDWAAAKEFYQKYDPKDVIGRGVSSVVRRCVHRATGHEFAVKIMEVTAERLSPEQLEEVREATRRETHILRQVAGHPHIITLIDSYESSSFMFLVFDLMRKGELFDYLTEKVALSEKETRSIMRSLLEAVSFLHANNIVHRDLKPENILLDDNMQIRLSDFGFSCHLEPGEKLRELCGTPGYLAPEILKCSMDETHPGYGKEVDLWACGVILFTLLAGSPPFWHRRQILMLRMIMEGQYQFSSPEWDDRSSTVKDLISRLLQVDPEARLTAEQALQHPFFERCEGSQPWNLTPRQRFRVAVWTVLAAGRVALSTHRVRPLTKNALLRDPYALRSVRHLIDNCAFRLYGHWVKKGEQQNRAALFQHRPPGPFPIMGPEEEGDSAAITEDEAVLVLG
As to conditions: kinase PHKG2; NEW KINOMEscan.

Assay [3] addresses kinases (KINOMEscan panel) (Homo sapiens, UniProt P19525). As to conditions: kinase ElF2AK2; NEW KINOMEscan.
The target of assay [4] is kinases (KINOMEscan panel) (Homo sapiens, UniProt P35916). Conditions: FLT4; NEW KINOMEscan.
In assay [5] the target is kinases (KINOMEscan panel) (Homo sapiens, UniProt P78368). Conditions: kinase CSNK1G2; NEW KINOMEscan.
For assay [6], the target named is kinases (KINOMEscan panel) (Homo sapiens, UniProt Q15569). Conditions: TESK1; NEW KINOMEscan.
Assay [7] deals with T3, kinases (KINOMEscan panel) (Homo sapiens, UniProt Q6ZWH5).
T3 sequence (Q6ZWH5 1-1172): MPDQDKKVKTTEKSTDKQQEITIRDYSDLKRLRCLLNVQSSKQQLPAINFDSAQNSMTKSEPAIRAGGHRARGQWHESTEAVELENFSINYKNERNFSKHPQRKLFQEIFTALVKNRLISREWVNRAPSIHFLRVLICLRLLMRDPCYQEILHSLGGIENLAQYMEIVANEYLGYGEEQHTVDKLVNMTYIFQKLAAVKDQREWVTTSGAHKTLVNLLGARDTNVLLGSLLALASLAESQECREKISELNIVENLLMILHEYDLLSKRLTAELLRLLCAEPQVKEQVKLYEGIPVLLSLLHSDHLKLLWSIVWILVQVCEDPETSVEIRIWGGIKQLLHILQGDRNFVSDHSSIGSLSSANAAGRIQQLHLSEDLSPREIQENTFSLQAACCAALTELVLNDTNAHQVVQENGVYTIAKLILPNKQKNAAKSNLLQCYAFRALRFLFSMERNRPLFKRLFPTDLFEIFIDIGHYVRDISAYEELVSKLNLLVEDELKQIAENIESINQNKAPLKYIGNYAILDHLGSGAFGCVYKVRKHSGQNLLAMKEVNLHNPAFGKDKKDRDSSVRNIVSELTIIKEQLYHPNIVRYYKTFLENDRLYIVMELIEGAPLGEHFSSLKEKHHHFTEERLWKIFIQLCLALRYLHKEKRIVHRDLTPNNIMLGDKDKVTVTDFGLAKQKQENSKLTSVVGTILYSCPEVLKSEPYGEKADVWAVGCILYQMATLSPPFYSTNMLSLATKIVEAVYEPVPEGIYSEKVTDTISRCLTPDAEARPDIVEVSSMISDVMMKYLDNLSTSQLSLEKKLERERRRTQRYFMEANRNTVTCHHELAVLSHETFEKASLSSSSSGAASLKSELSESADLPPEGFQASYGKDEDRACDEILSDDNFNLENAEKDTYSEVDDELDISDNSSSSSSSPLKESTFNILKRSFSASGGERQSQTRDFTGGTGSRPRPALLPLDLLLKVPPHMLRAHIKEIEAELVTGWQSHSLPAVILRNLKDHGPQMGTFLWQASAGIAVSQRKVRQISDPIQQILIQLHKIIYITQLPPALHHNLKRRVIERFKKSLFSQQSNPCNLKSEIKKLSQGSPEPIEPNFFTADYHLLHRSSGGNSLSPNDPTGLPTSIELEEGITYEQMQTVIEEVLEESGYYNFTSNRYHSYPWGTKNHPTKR
As to conditions: NEW KINOMEscan.

Sequence of kinases (KINOMEscan panel) (Homo sapiens, UniProt Q15569) (Q15569 whole entry): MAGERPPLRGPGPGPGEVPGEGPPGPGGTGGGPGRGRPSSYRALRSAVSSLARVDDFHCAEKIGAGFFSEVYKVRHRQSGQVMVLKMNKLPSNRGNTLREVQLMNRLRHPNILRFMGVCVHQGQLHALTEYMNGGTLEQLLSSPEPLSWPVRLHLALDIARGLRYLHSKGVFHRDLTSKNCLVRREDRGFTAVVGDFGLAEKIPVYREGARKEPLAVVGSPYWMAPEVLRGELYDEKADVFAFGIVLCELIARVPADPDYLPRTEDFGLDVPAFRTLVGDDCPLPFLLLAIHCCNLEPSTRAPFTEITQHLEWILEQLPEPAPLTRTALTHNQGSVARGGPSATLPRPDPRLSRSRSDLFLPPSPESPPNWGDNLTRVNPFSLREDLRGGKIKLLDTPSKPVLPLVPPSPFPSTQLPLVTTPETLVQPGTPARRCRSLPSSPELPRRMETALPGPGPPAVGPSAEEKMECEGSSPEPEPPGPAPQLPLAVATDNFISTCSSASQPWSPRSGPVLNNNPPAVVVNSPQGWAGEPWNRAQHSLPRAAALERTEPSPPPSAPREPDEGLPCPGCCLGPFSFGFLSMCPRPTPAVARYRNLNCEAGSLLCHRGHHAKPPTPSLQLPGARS
Sequence of kinases (KINOMEscan panel) (Homo sapiens, UniProt P78368) (P78368 whole entry): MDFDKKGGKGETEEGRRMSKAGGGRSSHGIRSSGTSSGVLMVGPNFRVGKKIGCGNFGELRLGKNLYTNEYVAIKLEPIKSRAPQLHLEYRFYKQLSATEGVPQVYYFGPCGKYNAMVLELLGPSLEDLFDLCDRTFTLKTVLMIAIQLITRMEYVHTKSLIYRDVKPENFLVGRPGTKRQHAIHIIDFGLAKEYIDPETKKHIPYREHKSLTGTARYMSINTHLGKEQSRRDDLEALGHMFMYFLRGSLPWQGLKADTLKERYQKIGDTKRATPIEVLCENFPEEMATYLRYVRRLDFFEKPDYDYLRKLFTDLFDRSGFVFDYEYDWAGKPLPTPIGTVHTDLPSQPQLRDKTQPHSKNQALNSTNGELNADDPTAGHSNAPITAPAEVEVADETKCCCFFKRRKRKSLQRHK
Sequence of kinases (KINOMEscan panel) (Homo sapiens, UniProt P19525) (P19525 whole entry): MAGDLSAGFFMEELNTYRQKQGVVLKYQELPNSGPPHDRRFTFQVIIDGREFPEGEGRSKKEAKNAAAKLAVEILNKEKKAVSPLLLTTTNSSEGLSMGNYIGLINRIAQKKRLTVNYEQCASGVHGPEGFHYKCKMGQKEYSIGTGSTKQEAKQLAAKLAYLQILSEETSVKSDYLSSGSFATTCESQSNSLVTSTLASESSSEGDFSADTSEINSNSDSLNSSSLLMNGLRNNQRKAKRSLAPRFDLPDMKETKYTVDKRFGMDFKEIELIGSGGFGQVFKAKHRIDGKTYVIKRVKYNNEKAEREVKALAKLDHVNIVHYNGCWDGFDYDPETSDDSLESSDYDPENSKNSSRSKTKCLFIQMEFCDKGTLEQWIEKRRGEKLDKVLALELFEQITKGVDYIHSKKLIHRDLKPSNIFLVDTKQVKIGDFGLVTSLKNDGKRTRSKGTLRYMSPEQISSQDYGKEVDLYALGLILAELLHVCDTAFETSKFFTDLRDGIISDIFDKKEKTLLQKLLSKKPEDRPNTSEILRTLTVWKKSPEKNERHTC
Sequence of kinases (KINOMEscan panel) (Homo sapiens, UniProt P35916) (P35916 25-1363): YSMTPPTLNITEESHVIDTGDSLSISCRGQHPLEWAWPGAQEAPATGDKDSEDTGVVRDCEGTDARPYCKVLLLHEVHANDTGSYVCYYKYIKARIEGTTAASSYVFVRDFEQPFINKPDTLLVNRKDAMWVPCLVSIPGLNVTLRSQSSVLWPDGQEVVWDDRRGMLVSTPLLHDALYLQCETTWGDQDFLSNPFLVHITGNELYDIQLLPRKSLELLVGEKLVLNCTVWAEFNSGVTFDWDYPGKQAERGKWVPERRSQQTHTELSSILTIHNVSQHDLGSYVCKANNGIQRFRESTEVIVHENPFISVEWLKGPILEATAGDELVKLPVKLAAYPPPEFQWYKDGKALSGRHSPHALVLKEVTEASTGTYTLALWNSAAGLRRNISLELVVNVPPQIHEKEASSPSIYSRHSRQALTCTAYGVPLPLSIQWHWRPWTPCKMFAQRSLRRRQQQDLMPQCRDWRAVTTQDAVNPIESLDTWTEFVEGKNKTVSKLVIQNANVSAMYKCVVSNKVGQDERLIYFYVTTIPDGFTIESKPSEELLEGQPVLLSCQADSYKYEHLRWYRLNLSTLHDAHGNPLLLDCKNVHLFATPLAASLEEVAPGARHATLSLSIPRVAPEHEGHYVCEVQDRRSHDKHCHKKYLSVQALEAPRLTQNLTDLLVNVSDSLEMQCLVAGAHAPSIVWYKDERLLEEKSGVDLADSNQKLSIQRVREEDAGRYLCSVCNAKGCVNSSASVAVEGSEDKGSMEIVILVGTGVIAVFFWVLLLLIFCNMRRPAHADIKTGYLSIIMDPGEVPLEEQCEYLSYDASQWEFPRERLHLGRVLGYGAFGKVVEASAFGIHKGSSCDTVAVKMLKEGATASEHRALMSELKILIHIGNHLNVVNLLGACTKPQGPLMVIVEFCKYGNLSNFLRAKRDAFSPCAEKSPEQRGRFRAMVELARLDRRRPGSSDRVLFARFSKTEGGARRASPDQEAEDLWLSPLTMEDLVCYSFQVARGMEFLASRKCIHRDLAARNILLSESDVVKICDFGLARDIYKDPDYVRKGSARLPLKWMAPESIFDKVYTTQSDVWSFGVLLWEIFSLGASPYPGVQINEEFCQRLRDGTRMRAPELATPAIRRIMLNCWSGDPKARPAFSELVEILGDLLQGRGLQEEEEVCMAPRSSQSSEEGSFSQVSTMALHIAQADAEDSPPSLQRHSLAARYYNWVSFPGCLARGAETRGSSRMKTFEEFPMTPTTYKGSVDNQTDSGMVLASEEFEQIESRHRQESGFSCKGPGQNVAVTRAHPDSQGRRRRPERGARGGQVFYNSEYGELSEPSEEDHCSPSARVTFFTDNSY

Regarding `Cc1cccc(-c2nc(Nc3ccc4nn(C)cc4c3)c3ccccc3n2)n1` [NK167], in assay [1], the “KINOMEscan MAP3K7” value was 0. Further, the “KINOMEscan PHKG2” value in assay [2] worked out at 0. Besides, in assay [3], the “KINOMEscan ElF2AK2” value stood at 19. Further, the “KINOMEscan FLT4” value in assay [4] stood at 0. Further, in assay [5], the “KINOMEscan CSNK1G2” value is given as 12. Besides, in assay [6], the “KINOMEscan TESK1” value stood at 0. Also, in assay [7], the “KINOMEscan NEK10” value turned out to be 11.
Turning to `Cc1cccc(-c2nc(N(C)c3ccc4ncsc4c3)c3ccccc3n2)n1` [NK-161], in assay [1], the “KINOMEscan MAP3K7” value is 10. The “KINOMEscan PHKG2” value in assay [2] is 0. Besides, in assay [3], the “KINOMEscan ElF2AK2” value came to 7. Moreover, the “KINOMEscan FLT4” value in assay [4] was 1. Also, the “KINOMEscan CSNK1G2” value in assay [5] is listed as 25. The “KINOMEscan TESK1” value in assay [6] amounted to 0. Also, in assay [7], the “KINOMEscan NEK10” value was found to be 17.
